The values that follow come from patent US20210255193A1, “LYSINE REACTIVE PROBES AND USES THEREOF” (The Scripps Research Institute, priority 2017, published 2021).

Common to all, as to experiment: competitive isoTOP-ABPP
What all share (type): binding

For experiment [1], the target named is T1, EEF1G Elongation factor 1-gamma (Homo sapiens, UniProt P26641).
T1 construct: isoTOP-ABPP experiments performed in cell lysates (in vitro); endogenous in cells; host or cells: soluble proteome of human cancer cell lines (MDA-MB-231; Ramos and Jurkat also prepared)
T1 sequence (P26641 whole entry): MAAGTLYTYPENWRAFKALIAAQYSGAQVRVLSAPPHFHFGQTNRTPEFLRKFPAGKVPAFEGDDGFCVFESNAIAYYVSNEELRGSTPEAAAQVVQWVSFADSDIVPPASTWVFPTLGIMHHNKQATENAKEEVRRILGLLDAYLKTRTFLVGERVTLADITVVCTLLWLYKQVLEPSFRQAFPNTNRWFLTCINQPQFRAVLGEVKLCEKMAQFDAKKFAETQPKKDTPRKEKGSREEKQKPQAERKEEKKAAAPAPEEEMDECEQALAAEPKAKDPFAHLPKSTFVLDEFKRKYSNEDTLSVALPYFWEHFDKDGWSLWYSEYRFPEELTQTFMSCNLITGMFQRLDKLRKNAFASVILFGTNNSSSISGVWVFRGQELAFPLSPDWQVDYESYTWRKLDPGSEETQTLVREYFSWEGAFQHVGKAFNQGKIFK
To be noted: for R value (DMSO/fragment) for probe 1 labeling: P26641_K227; for R value (DMSO/fragment) for probe 1 labeling / isoTOP-ABPP reactivity ratio at lysine P26641_K227: 231 sol; for isoTOP-ABPP ratio, lysine P26641_K227: 50 uM_231_sol_in vitro. The method, boiled down:
(§1)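 Cell lysate treated in vitro with fragments (50 μM activated esters, 100 μM guanidinylating agents) or DMSO, labelled 1 h at ambient temperature with 0.1 mM STP-alkyne, CuAAC-tagged with light/heavy TEV tags, analysed by MS. R = DMSO/compound MS1 peak-area ratio; lysines with R≥4 called liganded.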

Experiment [2] deals with T2, GABARAPL2 Gamma-aminobutyric acid receptor-associated protei (Homo sapiens, UniProt P60520).
T2 construct: isoTOP-ABPP experiments performed in cell lysates (in vitro); endogenous in cells; host or cells: soluble proteome of human cancer cell lines (MDA-MB-231, Ramos, Jurkat)
T2 sequence (P60520 1-116 limits assumed): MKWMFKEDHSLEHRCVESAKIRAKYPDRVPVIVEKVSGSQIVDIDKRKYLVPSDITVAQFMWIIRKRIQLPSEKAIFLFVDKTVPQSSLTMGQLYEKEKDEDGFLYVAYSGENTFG
To be noted: for R value (DMSO/fragment) for probe 1 labeling: P60520_K46; for R value (DMSO/fragment) for probe 1 labeling / isoTOP-ABPP reactivity ratio at lysine P60520_K46 / isoTOP-ABPP ratio (R) at liganded lysine P60520_K46: 50 uM, in vitro; for R value (DMSO/fragment) for probe 1 labeling / isoTOP-ABPP reactivity ratio at lysine P60520_K46: 231 sol; for isoTOP-ABPP ratio (R) at liganded lysine P60520_K46: sol, 231; for isoTOP-ABPP ratio, lysine P60520_K46: 50 uM_231_sol_in vitro. The method, boiled down:
as §1

Experiment [3] deals with T3, FH Fumarate hydratase, mitochondrial (Homo sapiens, UniProt P07954).
T3 construct: isoTOP-ABPP experiments performed in cell lysates (in vitro); endogenous in cells; host or cells: MDA-MB-231 soluble lysate
T3 sequence (P07954 45-510): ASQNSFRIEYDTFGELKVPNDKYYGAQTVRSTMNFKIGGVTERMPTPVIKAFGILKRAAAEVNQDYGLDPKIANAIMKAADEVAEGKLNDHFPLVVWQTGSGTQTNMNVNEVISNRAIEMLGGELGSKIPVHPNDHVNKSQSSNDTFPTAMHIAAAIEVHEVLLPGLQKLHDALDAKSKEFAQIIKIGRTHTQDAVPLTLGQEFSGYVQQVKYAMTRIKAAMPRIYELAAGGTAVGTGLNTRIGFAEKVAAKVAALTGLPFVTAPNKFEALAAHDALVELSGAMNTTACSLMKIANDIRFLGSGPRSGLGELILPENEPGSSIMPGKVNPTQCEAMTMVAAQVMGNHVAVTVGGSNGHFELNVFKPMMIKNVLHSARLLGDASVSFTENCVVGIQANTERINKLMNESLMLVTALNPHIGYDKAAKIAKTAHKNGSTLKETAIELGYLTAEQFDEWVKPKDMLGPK
Particulars: for R value (DMSO/fragment) for probe 1 labeling: P07954_K311; for R value (DMSO/fragment) for probe 1 labeling / isoTOP-ABPP reactivity ratio at lysine P07954_K311 / isoTOP-ABPP ratio (R) at liganded lysine P07954_K311: 50 uM, in vitro; for R value (DMSO/fragment) for probe 1 labeling / isoTOP-ABPP reactivity ratio at lysine P07954_K311: 231 sol; for isoTOP-ABPP ratio (R) at liganded lysine P07954_K311: sol, 231; for isoTOP-ABPP ratio, lysine P07954_K311: 50 uM_231_sol_in vitro. The method, boiled down: as §1

Experiment [4] addresses T4, NLN Neurolysin, mitochondrial (Homo sapiens, UniProt Q9BYT8).
T4 construct: isoTOP-ABPP experiments performed in cell lysates (in vitro); endogenous in cells; host or cells: soluble proteome of human cancer cell lines (MDA-MB-231; Ramos and Jurkat also prepared)
To be noted: for R value (DMSO/fragment) for probe 1 labeling: Q9BYT8_K253; for R value (DMSO/fragment) for probe 1 labeling / isoTOP-ABPP reactivity ratio at lysine Q9BYT8_K253 / isoTOP-ABPP ratio (R) at liganded lysine Q9BYT8_K253: 50 uM, in vitro; for R value (DMSO/fragment) for probe 1 labeling / isoTOP-ABPP reactivity ratio at lysine Q9BYT8_K253: 231 sol; for isoTOP-ABPP ratio (R) at liganded lysine Q9BYT8_K253: sol, 231. The method, boiled down:
as §1

The target of experiment [5] is T5, SLC25A5 ADP/ATP translocase 2 (Homo sapiens, UniProt P05141).
T5 construct: isoTOP-ABPP experiments performed in cell lysates (in vitro); endogenous in cells; host or cells: MDA-MB-231 soluble lysate
T5 sequence (P05141 1-298): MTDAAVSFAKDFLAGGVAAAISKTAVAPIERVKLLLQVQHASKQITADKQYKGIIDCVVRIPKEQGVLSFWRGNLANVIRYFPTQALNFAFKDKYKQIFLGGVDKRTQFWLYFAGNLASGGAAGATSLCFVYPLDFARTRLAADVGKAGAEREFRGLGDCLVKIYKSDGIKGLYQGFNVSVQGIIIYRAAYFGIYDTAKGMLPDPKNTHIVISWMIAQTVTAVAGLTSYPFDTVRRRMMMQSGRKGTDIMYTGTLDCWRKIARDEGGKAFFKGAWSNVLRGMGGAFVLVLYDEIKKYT
Particulars: for isoTOP-ABPP ratio (R) at liganded lysine P05141_K23: sol, 231; for isoTOP-ABPP ratio, lysine P05141_K23: 50 uM_231_sol_in vitro. The method, boiled down: as §1

SMILES strings stand for the structures.

T4 sequence (Q9BYT8 38-704): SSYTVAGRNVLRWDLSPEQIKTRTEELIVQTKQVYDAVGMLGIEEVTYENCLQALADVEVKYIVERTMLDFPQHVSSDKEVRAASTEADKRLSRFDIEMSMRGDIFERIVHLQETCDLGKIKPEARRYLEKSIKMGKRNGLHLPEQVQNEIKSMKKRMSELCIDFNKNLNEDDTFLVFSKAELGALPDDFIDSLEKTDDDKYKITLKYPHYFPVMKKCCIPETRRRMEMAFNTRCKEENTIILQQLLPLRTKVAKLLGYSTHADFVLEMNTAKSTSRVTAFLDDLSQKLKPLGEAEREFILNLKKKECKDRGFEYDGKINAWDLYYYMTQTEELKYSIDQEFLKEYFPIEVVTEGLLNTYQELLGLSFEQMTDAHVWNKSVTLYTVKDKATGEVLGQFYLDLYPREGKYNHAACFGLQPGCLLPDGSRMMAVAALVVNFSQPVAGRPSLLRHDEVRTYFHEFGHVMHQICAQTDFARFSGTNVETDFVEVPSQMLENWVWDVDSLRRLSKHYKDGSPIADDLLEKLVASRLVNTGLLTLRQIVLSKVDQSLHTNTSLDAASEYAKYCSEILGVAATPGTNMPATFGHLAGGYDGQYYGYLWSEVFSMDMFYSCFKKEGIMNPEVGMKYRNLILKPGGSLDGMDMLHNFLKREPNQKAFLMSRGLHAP

For `O=C(Oc1c(F)c(F)c(F)c(F)c1F)C(c1ccccc1)c1ccccc1` [fragment 20, Pentafluorophenyl 2,2-diphenylacetate], the “R value (DMSO/fragment) for probe 1 labeling” value (from here on “R value (DMSO/fragment)”) in experiment [1] (50 uM, in vitro) is listed as 0.9; in experiment [2], 0.9; in experiment [3], 1.2; in experiment [4], 0.9.

Take `O=C(Oc1c(F)c(F)c(F)c(F)c1F)c1cc(C(F)(F)F)cc(C(F)(F)F)c1` [fragment 21, Pentafluorophenyl 3,5-bis(trifluoromethyl)benzoate]: the “R value (DMSO/fragment)” value in experiment [1] (50 uM, in vitro) is reported as 0.8; in experiment [2], 0.8; in experiment [5] (P05141_K23, 50 uM, 231 sol, in vitro) it was 1.7; in experiment [3], 1.3; in experiment [4], 0.7.

Consider `COc1cc(CCC(=O)Oc2c(F)c(F)c(F)c(F)c2F)cc(OC)c1OC` [fragment 23, Pentafluorophenyl 3-(3,4,5-trimethoxyphenyl)propanoate], for which, in experiment [3], the “R value (DMSO/fragment)” value was found to be 2.6.

As to `O=C(CCc1coc2cc(F)ccc2c1=O)Oc1c(F)c(F)c(F)c(F)c1F` [fragment 26, Pentafluorophenyl 3-(7-fluoro-4-oxo-4H-chromen-3-yl)propanoate], in experiment [1] (50 uM, in vitro), the “isoTOP-ABPP reactivity ratio at lysine P26641_K227” value was 0.8. Also, in experiment [3], the “isoTOP-ABPP reactivity ratio at lysine P07954_K311” value is listed as 2.4. Also, the “isoTOP-ABPP reactivity ratio at lysine Q9BYT8_K253” value in experiment [4] turned out to be 1.2.

With `O=C(Oc1ccc([N+](=O)[O-])cc1[N+](=O)[O-])C(c1ccccc1)c1ccccc1` [fragment 30, 2,4-Dinitrophenyl 2,2-diphenylacetate], the “isoTOP-ABPP reactivity ratio at lysine P26641_K227” value in experiment [1] (50 uM, in vitro) is reported as 0.9. For the same compound, the “isoTOP-ABPP reactivity ratio at lysine P05141_K23” value in experiment [5] (50 uM, 231 sol, in vitro) was determined as 2.2. In addition, the “isoTOP-ABPP reactivity ratio at lysine P07954_K311” value in experiment [3] amounted to 5.2. In experiment [4], the “isoTOP-ABPP reactivity ratio at lysine Q9BYT8_K253” value was 1.3.

Take `O=C(Oc1ccc([N+](=O)[O-])cc1[N+](=O)[O-])c1cc(C(F)(F)F)cc(C(F)(F)F)c1` [fragment 31, 2,4-Dinitrophenyl 3,5-bis(trifluoromethyl)benzoate]: the “isoTOP-ABPP reactivity ratio at lysine P26641_K227” value in experiment [1] (50 uM, in vitro) worked out at 2.2. Also, the “isoTOP-ABPP reactivity ratio at lysine P60520_K46” value in experiment [2] was 1.2. Besides, the “isoTOP-ABPP reactivity ratio at lysine P05141_K23” value in experiment [5] (50 uM, 231 sol, in vitro) worked out at 1.5. The “isoTOP-ABPP reactivity ratio at lysine P07954_K311” value in experiment [3] is 1.4. Besides, the “isoTOP-ABPP reactivity ratio at lysine Q9BYT8_K253” value in experiment [4] is reported as 1.5.

With `COc1cc(CCC(=O)Oc2ccc([N+](=O)[O-])cc2[N+](=O)[O-])cc(OC)c1OC` [fragment 33, 2,4-Dinitrophenyl 3-(3,4,5-trimethoxyphenyl)propanoate], the “isoTOP-ABPP reactivity ratio at lysine P26641_K227” value in experiment [1] (50 uM, in vitro) amounted to 0.7. In addition, the “isoTOP-ABPP reactivity ratio at lysine P60520_K46” value in experiment [2] was 1.2. For the same compound, the “isoTOP-ABPP reactivity ratio at lysine P07954_K311” value in experiment [3] is 2.2. For the same compound, the “isoTOP-ABPP reactivity ratio at lysine Q9BYT8_K253” value in experiment [4] turned out to be 4.1.

For the compound `O=C(Oc1ccc([N+](=O)[O-])cc1[N+](=O)[O-])c1ccc(-c2ccccc2)cc1` [fragment 37, 2,4-Dinitrophenyl [1,1′-biphenyl]-4-carboxylate], in experiment [2], the “isoTOP-ABPP ratio (R) at liganded lysine P60520_K46” value came out at 0.8. The “isoTOP-ABPP ratio (R) at liganded lysine P05141_K23” value in experiment [5] (50 uM, in vitro) came out at 1.2. Also, the “isoTOP-ABPP ratio (R) at liganded lysine P07954_K311” value in experiment [3] came to 1.2. Besides, in experiment [4], the “isoTOP-ABPP ratio (R) at liganded lysine Q9BYT8_K253” value was 0.9.

Regarding `O=C(Oc1ccc([N+](=O)[O-])cc1[N+](=O)[O-])c1ccc(Oc2ccccc2)cc1` [fragment 39, 2,4-Dinitrophenyl 4-phenoxybenzoate], the “isoTOP-ABPP ratio (R) at liganded lysine P60520_K46” value in experiment [2] came out at 0.8. In addition, the “isoTOP-ABPP ratio (R) at liganded lysine P05141_K23” value in experiment [5] (50 uM, in vitro) was found to be 0.9. In experiment [3], the “isoTOP-ABPP ratio (R) at liganded lysine P07954_K311” value was 0.9. Further, in experiment [4], the “isoTOP-ABPP ratio (R) at liganded lysine Q9BYT8_K253” value is 1.1.

On to `CC(C)(C)OC(=O)NCCCC(=O)Oc1ccc([N+](=O)[O-])cc1[N+](=O)[O-]` [fragment 41, 2,4-Dinitrophenyl 4-((tert-butoxycarbonyl)amino)butanoate], for which the “isoTOP-ABPP ratio (R) at liganded lysine P26641_K227” value in experiment [1] (50 uM, in vitro, sol, 231) is 0.8. Further, the “isoTOP-ABPP ratio (R) at liganded lysine P60520_K46” value in experiment [2] worked out at 1.0. Further, the “isoTOP-ABPP ratio (R) at liganded lysine P05141_K23” value in experiment [5] (50 uM, in vitro) came to 1.0. Besides, the “isoTOP-ABPP ratio (R) at liganded lysine P07954_K311” value in experiment [3] worked out at 1.0. Also, the “isoTOP-ABPP ratio (R) at liganded lysine Q9BYT8_K253” value in experiment [4] amounted to 1.3.

Turning to `O=C(CCc1ccc2c(c1)OCO2)Oc1ccc([N+](=O)[O-])cc1[N+](=O)[O-]` [fragment 45, 2,4-Dinitrophenyl 3-(benzo[d][1,3]dioxol-5-yl)propanoate], the “isoTOP-ABPP ratio, lysine P26641_K227” value in experiment [1] worked out at 0.6. Besides, the “isoTOP-ABPP ratio, lysine P60520_K46” value in experiment [2] stood at 1.0. Besides, the “isoTOP-ABPP ratio, lysine P05141_K23” value in experiment [5] was 1.2. In experiment [3], the “isoTOP-ABPP ratio, lysine P07954_K311” value is reported as 1.8. In experiment [4] (50 uM_231_sol_in vitro), the “isoTOP-ABPP ratio, lysine Q9BYT8_K253” value is given as 1.3.

`O=C(Oc1c(F)c(F)c(C(F)(F)F)c(F)c1F)c1cc(C(F)(F)F)cc(C(F)(F)F)c1` [fragment 47, 2,3,5,6-Tetrafluoro-4-(trifluoromethyl)phenyl 3,5-bis(trifluoromethyl)benzoate]: the “isoTOP-ABPP ratio, lysine P60520_K46” value in experiment [2] is listed as 1.0. Besides, in experiment [5], the “isoTOP-ABPP ratio, lysine P05141_K23” value came out at 1.8. The “isoTOP-ABPP ratio, lysine P07954_K311” value in experiment [3] was determined as 1.4.

For `NC(=O)c1cc(C(F)(F)F)cc(C(F)(F)F)c1` [fragment 51, reference compound], the “isoTOP-ABPP ratio, lysine P26641_K227” value in experiment [1] was determined as 0.9. Further, the “isoTOP-ABPP ratio, lysine P60520_K46” value in experiment [2] was 1.0. In addition, in experiment [3], the “isoTOP-ABPP ratio, lysine P07954_K311” value is given as 1.0.
